Consider nine compounds from patent EP1100483B1, “GLUCOCORTICOID-SELECTIVE ANTI-INFLAMMATORY AGENTS” (Abbott Laboratories, priority 1998, dated 2000).

Where only a bound is given, the exact number is not on record here.

This assay addresses T1, human estrogen receptor-alpha (Homo sapiens, UniProt P03372).
T1 construct: made in house; host or cells: yeast strain BJ2168, copper-induced
T1 sequence (P03372 1-595): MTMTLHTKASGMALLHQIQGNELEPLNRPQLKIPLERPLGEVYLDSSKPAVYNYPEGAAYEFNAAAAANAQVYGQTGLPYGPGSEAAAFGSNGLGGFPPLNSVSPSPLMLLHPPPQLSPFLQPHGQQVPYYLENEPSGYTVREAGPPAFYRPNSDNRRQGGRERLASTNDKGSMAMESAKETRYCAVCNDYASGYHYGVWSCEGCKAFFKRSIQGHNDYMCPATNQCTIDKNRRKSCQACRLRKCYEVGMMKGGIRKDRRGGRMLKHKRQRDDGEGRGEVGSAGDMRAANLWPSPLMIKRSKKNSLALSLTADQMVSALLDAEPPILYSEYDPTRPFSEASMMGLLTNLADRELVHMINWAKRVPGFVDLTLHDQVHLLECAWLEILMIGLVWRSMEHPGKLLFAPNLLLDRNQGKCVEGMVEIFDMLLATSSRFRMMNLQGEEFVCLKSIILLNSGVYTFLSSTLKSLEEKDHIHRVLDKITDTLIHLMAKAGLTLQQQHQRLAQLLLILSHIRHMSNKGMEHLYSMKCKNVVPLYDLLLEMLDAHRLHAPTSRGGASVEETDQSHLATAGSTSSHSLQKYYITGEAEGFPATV
The assay can be described thus: soluble estrogen receptor-alpha (ER-α) binding assay, [3H]-estradiol competition. To be noted: 2-3 nM [3H]-estradiol, 4 °C for 18 hours; Cheng-Prusoff. An excerpt:
For soluble estrogen receptor-alpha (ER-α) binding assays, [^3H]- Estradiol (120-140 Ci/mmol) was purchased from New England Nuclear (Boston, MA), 17-beta estradiol was purchased from Sigma Chemical Co. (St. Louis, MO), CHAPS and DTT were purchased from Boehringer Mannheim GmbH (W. Germany) and all other reagents were purchased from Sigma.
The human estrogen receptor-alpha cDNA was cloned into a yeast vector termed pYhERα and used to transform wild type yeast strain BJ2168 following the protocol outlined by Pham, T.A., Hwung Y.P., Santiso-Mere, D., McDonnell D.P., O'Malley, B.W., Ligand-Dependent and Independent Function of the Transactivation Regions of the Human Estrogen Receptor in Yeast, Mol. Endocrinol. 1992, 6, 1043-1050, hereby incorporated by reference. The yeast was induced with copper for 16 hours after which the cells were harvested, washed and the receptor extract prepared in cold buffer via a Bead Beater (BioSpec Products , Bartlesville, OK). Aliquots of the receptor typically contained 5-10 mg/ml of total protein and were stored at -80 °C until used. Estradiol or other competing compounds were prepared as 5 mM stock solutions in either 100% ethanol or DMSO and serial dilutions were carried out in 1:1 DMSO-ethanol. The assay buffer consisted of the following: 300 mM potassium chloride, 10 mM Trizma Base, 2 mM DTT and 5 mM CHAPS , pH=7.5 at room temperature.
Receptor assays were performed in a 250 µL final volume containing from 5-10 µg of extract protein, plus 2-3 nM [^3H]-estradiol and varying concentrations of competing ligand (0 to 10,000 nM). Assays were set up using a 96-well minitube system and incubations were carried out at 4 °C for 18 hours. Equilibrium under these conditions of buffer and temperature was achieved by 6-8 hours. Nonspecific binding was defined as that binding remaining in the presence of 1000 nM unlabeled estradiol. At the end of the incubation period, 200 µL of 6.25% hydroxyapatite was added in wash buffer (binding buffer in the absence of DTT but containing 1 mM CHAPS). Specific ligand binding to receptor was determined by a hydroxyapatite-binding assay according to the protocol outlined by Wecksler, W.R., Norman, A.W, An Hydroxylapatite Batch Assay for the Quantitation of 1α, 25-Dihydroxyvitamin D3-Receptor Complexes. Anal. Biochem. 1979, 92, 314-323, hereby incorporated by reference. Hydroxyapatite absorbs the receptor-ligand complex, allowing for the separation of bound from free radiolabeled ligand. The mixture was vortexed, incubated for 10 minutes at 4 °C, centrifuged, and the supernatant was removed. The hydroxyapatite pellet was washed twice more with the wash buffer. The amount of receptor-ligand complex was determined by liquid scintillation counting of the hydroxyapatite pellet after the addition of […] EcoScint A scintillation cocktail from National Diagnostics (Atlanta, GA.).
After correcting for nonspecific binding, IC50 values were determined. […] The IC50 values were determined graphically from a log-logit plot of the data. […] Standards are included in each assay and resulting Ki values are determined by use of a modified Cheng-Prusoff equation and used to calculate Ki values for "unknown analogs", DeBlasi, A., O'Reilly, K., Motulsky, H.J., Calculating Receptor Number from Binding Experiments Using Same Compound As Radioligand and Competitor, TIPS 1989, 10, 227-229, hereby incorporated by reference.

`CNc1ccc(C(c2ccc(NC)cc2)c2cc([N+](=O)[O-])ccc2Cl)cc1` [Example 23, 4',4" bis(methylamino)-2-chloro-5-nitrotriphenylmethane]: the Ki (as a rule, a dissociation constant, usually derived from enzyme kinetics or from competition with a known ligand) is greater than 10000 nM. To `CNc1ccc(C(c2ccc(NC)cc2)c2cc(Cl)ccc2Cl)cc1` [Example 27, 4',4" bis(methylamino)-2,5-dichlorotriphenylmethane] belongs greater than 10000 nM; to `O=[N+]([O-])c1ccc(Cl)c(C(c2ccc(NCc3ccccc3)cc2)c2ccc(NCc3ccccc3)cc2)c1` [Example 36, 4',4" bis(N-benzylamino)-2-chloro-5-nitrotriphenylmethane], greater than 10000 nM. The same measure for `CNc1ccc(C(c2ccc(N(C)C)cc2)c2cc([N+](=O)[O-])ccc2Cl)cc1` (stereo not drawn) [Example 39, 4'-dimethylamino-4"-methylamino-2-chloro-5-nitrotriphenylmethane]: greater than 10000 nM; for `CN(C)c1ccc(C(c2ccc(N(C)CCO)cc2)c2cc([N+](=O)[O-])ccc2Cl)cc1` (stereo not drawn) [Example 42, 4'-dimethylamino-4"-(N-methyl-N-(2-hydroxyethyl)amino)-2-chloro-5-nitrotriphenylmethane]: greater than 10000 nM; for `CNc1ccc(C(c2ccc(N(C)CCOC(C)=O)cc2)c2cc([N+](=O)[O-])ccc2Cl)cc1` (stereo not drawn) [Example 49, 4'-methylamino-4"-(N-(2-acetoxyethyl)-N-methylamino)-2-chloro-5-nitrotriphenylmethane]: greater than 10000 nM.

In the case of `CC(=O)OCCN(C)c1ccc(C(c2ccc(N(C)C)cc2)c2cc([N+](=O)[O-])ccc2Cl)cc1` (stereo not drawn) [Example 51, 4'-dimethylamino-4"-(N-methyl-N-(2-acetoxyethyl)amino)-2-chloro-5-nitrotriphenylmethane], the Ki is greater than 10000 nM. The same measure for `CN(C)c1ccc(C(Oc2ccccc2)c2cc([N+](=O)[O-])ccc2Cl)cc1` (stereo not drawn) [Example 52, phenyl-[(4'-dimethylaminophenyl)-(2-chloro-5-nitrophenyl)methyl] ether]: greater than 10000 nM. Take `CN(C)c1ccc(C(Sc2ccccc2)c2cc([N+](=O)[O-])ccc2Cl)cc1` (stereo not drawn) [Example 54, phenyl-[(4'-dimethylaminophenyl)-(2-chloro-5-nitrophenyl)methyl]thioether]: the inhibitory constant (Ki) is greater than 10000 nM.
